IC50 data for 11 molecules are collected here from patent publication US20260327191A1, “GSK3a INHIBITORS AND METHODS OF USE THEREOF” (Blueprint Medicines Corporation, priority 2023, published 2026).

SMILES strings stand for the structures.

In general, IC50 refers to the concentration that gives 50% inhibition.

The target of assay [1] is T1, GSK3B (Homo sapiens, UniProt P49841). Nature of the assay: NanoBRET cellular target engagement assay, Nanoluc-GSK3B in HEK293 cells. It is filed as cell-based. Also on record: expressed in transfected cells. Particulars: NanoBRET GSK3β IC50, HEK293 cells, tracer K-8, 2 hours, 37° C. (In BRET a luciferase serves as donor, and the signal depends on an acceptor being close.)
T1 sequence (P49841 whole entry): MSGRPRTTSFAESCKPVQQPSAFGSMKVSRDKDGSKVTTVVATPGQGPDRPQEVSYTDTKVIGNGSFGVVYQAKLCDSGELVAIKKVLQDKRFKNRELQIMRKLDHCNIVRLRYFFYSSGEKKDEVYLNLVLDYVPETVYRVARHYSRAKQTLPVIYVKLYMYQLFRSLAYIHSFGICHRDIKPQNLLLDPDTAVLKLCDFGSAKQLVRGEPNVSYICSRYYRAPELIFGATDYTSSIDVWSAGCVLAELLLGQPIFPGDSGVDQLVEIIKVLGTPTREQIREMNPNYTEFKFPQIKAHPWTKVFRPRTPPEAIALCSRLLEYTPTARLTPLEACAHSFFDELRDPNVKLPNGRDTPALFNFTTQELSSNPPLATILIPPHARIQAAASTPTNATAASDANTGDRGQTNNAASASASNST

In assay [2] the target is T2, human GSK3α (Homo sapiens, UniProt P49840).
T2 construct: Full length human GSK3α or GSK3B expressed as N-terminal GST fusion proteins; GST (N); purchased Carna Biosciences (Japan); host or cells: baculovirus host
T2 sequence (P49840 whole entry, the tested form may be a part): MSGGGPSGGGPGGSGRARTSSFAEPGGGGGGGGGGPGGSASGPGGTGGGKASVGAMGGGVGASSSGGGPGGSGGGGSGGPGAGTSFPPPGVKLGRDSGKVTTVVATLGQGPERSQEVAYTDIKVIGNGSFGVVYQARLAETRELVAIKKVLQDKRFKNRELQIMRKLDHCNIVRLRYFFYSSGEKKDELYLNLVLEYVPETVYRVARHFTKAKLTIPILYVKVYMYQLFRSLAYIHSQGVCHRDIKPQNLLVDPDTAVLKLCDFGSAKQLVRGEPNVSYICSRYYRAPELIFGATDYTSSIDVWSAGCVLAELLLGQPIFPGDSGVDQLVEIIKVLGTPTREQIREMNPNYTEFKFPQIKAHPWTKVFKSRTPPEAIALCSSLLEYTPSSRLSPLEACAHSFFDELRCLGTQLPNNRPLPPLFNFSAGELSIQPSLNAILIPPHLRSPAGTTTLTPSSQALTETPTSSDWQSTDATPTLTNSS
Nature of the assay: In vitro enzymatic activity assay, GSK3α. It is filed as biochemical. Particulars: 1.0 mM ATP, 1.0 μM peptide substrate, 120 min, 25° C, read-out: Enzyme GSK3α (IC50).

Assay [3] addresses T1, GSK3B. The experiment in a line: In vitro enzymatic activity assay, GSK3β. On the set-up: Full length human GSK3α or GSK3B expressed as N-terminal GST fusion proteins; GST (N); purchased Carna Biosciences (Japan); host or cells: baculovirus host. It is filed as biochemical. Particulars: 1.0 mM ATP, 1.0 μM peptide substrate, 120 min, 25° C, read-out: Enzyme GSK3β (IC50).
Assay [4] addresses T3, GSK3A (Homo sapiens, UniProt P49840).
T3 construct: expressed in transfected cells
Nature of the assay: NanoBRET cellular target engagement assay, Nanoluc-GSK3A in HEK293 cells. It is filed as cell-based. Particulars: NanoBRET GSK3α IC50, HEK293 cells, tracer K-8, 2 hours, 37° C.

T3 sequence (P49840 whole entry): as the sequence (P49840 whole entry, the tested form may be a part) above

Turning to `COc1ccccc1-n1cnc(N)c(C(=O)Nc2cccc(C3CCCN3)c2N2CCOCC2)c1=O` (single isomer, unassigned) [Example 166, (S)-4-amino-1-(2-methoxyphenyl)-N-(2-morpholino-3-(pyrrolidin-2-yl)phenyl)-6-oxo-1,6-dihydropyrimidine-5-carboxamide or (R)-4-amino-1-(2-methoxyphenyl)-N-(2-morpholino-3-(pyrrolidin-2-yl)phenyl)-6-oxo-1,6-dihydropyrimidine-5-carboxamide], the IC50 in assay [1] is 16100 nM; in assay [2], 285 nM; in assay [3], 9380 nM; in assay [4], 177 nM.
On to `Nc1ncn(-c2c(Cl)cccc2Cl)c(=O)c1C(=O)Nc1cccc(C2CCCN2)c1F` (single isomer, unassigned) [Example 167, (S)-4-amino-1-(2,6-dichlorophenyl)-N-(2-fluoro-3-(pyrrolidin-2-yl)phenyl)-6-oxo-1,6-dihydropyrimidine-5-carboxamide or (R)-4-amino-1-(2,6-dichlorophenyl)-N-(2-fluoro-3-(pyrrolidin-2-yl)phenyl)-6-oxo-1,6-dihydropyrimidine-5-carboxamide], for which the IC50 in assay [1] was found to be 1860 nM; in assay [2], 45.4 nM; in assay [3] it was 1810 nM; in assay [4] it was 27.2 nM.
`Nc1ncn(-c2c(Cl)cccc2Cl)c(=O)c1C(=O)Nc1cccc(C2CCCN2)c1F` (single isomer, unassigned) [Example 168, (S)-4-amino-1-(2,6-dichlorophenyl)-N-(2-fluoro-3-(pyrrolidin-2-yl)phenyl)-6-oxo-1,6-dihydropyrimidine-5-carboxamide or (R)-4-amino-1-(2,6-dichlorophenyl)-N-(2-fluoro-3-(pyrrolidin-2-yl)phenyl)-6-oxo-1,6-dihydropyrimidine-5-carboxamide]: the IC50 stood at 1470 nM in assay [1], 49.3 nM in assay [2], 1530 nM in assay [3] and 27.1 nM in assay [4].
As to `COc1c(NC(=O)c2c(N)ncn(-c3c(Cl)cccc3Cl)c2=O)cccc1C1CCCN1` (single isomer, unassigned) [Example 169, (R)-4-amino-1-(2,6-dichlorophenyl)-N-(2-methoxy-3-(pyrrolidin-2-yl)phenyl)-6-oxo-1,6-dihydropyrimidine-5-carboxamide or (S)-4-amino-1-(2,6-dichlorophenyl)-N-(2-methoxy-3-(pyrrolidin-2-yl)phenyl)-6-oxo-1,6-dihydropyrimidine-5-carboxamide], the IC50 amounted to 103 nM in assay [1], 4.2 nM in assay [2], 105 nM in assay [3] and 2 nM in assay [4].
The matching figures for `COc1cc(Cl)c(-n2cnc(N)c(C(=O)Nc3cnnc(C4CCCCN4)c3)c2=O)c(Cl)c1` (single isomer, unassigned) [Example 172, (R)-4-amino-1-(2,6-dichloro-4-methoxyphenyl)-6-oxo-N-(6-(piperidin-2-yl)pyridazin-4-yl)-1,6-dihydropyrimidine-5-carboxamide or (S)-4-amino-1-(2,6-dichloro-4-methoxyphenyl)-6-oxo-N-(6-(piperidin-2-yl)pyridazin-4-yl)-1,6-dihydropyrimidine-5-carboxamide]: 98.8 nM, 6.3 nM, 260 nM and 3.5 nM.
The matching figures for `CO[C@H](C)c1cc(C)c(-n2cnc(N)c(C(=O)Nc3cncc([C@@H](C)N)c3)c2=O)c(C)c1` (single isomer, unassigned) [Example 174]: 560 nM, 28 nM, 705 nM and 8.7 nM.
Taken in the same sequence, the figures for `CO[C@H](C)c1cc(C)c(-n2cnc(N)c(C(=O)Nc3cncc([C@@H](C)N)c3)c2=O)c(C)c1` (single isomer, unassigned) [Example 175] were 581 nM, 32.6 nM, 803 nM and 8.1 nM.
Take `CCOC[C@@H](N)c1cncc(NC(=O)c2c(N)ncn(-c3c(C)cc(COC)cc3C)c2=O)c1` (single isomer, unassigned) [Example 177, (S)-4-amino-N-(5-(1-amino-2-ethoxyethyl)pyridin-3-yl)-1-(4-(methoxymethyl)-2,6-dimethylphenyl)-6-oxo-1,6-dihydropyrimidine-5-carboxamide or (R)-4-amino-N-(5-(1-amino-2-ethoxyethyl)pyridin-3-yl)-1-(4-(methoxymethyl)-2,6-dimethylphenyl)-6-oxo-1,6-dihydropyrimidine-5-carboxamide]: the IC50 in assay [1] is 283 nM; in assay [2], 4 nM; in assay [3], 200 nM; in assay [4], 2.8 nM.
Taken in the same sequence, the figures for `CC1CCC(c2cccc(NC(=O)c3c(N)ncn(-c4c(Cl)cccc4Cl)c3=O)c2)N1` (single isomer, unassigned) [Example 180, 4-amino-1-(2,6-dichlorophenyl)-N-(3-((2R,5R)-5-methylpyrrolidin-2-yl)phenyl)-6-oxo-1,6-dihydropyrimidine-5-carboxamide or 4-amino-1-(2,6-dichlorophenyl)-N-(3-((2S,5S)-5-methylpyrrolidin-2-yl)phenyl)-6-oxo-1,6-dihydropyrimidine-5-carboxamide] were 322 nM, 6.4 nM, 298 nM and 4.7 nM.
The matching figures for `Cc1cc([C@@H](C)F)cc(C)c1-n1cnc(N)c(C(=O)Nc2cncc([C@H]3CCCCN3)c2)c1=O` (single isomer, unassigned) [Example 184, 4-amino-1-(4-((R)-1-fluoroethyl)-2,6-dimethylphenyl)-6-oxo-N-(5-((R)-piperidin-2-yl)pyridin-3-yl)-1,6-dihydropyrimidine-5-carboxamide or 4-amino-1-(4-((S)-1-fluoroethyl)-2,6-dimethylphenyl)-6-oxo-N-(5-((R)-piperidin-2-yl)pyridin-3-yl)-1,6-dihydropyrimidine-5-carboxamide]: 167 nM, 3.9 nM, 175 nM and 2.1 nM.
With `Cc1cc([C@@H](C)F)cc(C)c1-n1cnc(N)c(C(=O)Nc2cncc([C@H]3CCCCN3)c2)c1=O` (single isomer, unassigned) [Example 185, 4-amino-1-(4-((R)-1-fluoroethyl)-2,6-dimethylphenyl)-6-oxo-N-(5-((R)-piperidin-2-yl)pyridin-3-yl)-1,6-dihydropyrimidine-5-carboxamide or 4-amino-1-(4-((S)-1-fluoroethyl)-2,6-dimethylphenyl)-6-oxo-N-(5-((R)-piperidin-2-yl)pyridin-3-yl)-1,6-dihydropyrimidine-5-carboxamide], the IC50 amounted to 128 nM in assay [1], 3.5 nM in assay [2], 148 nM in assay [3] and 1.6 nM in assay [4].
